Results published in patent US8349805B2, “Use of Gonadorelin as a therapeutic agent” (priority 2007, dated 2013).
Ends that are not written are not given here.

Test system: drug-resistant Mycobacterium tuberculosis
Settings: 10 micrograms per ml; seven days at 37° C.; strain resistant to PAS, streptomycin and isoniazid

| Molecule | inhibition of the growth of Mycobacterium tuberculosis |
| --- | --- |
| CC(C)C[C@H](NC(=O)CNC(=O)[C@H](Cc1ccc(O)cc1)NC(=O)[C@H](CO)NC(=O)[C@H](Cc1c[nH]c2ccccc12)NC(=O)[C@H](Cc1cnc[nH]1)NC(=O)[C@@H]1CCC(=O)N1)C(=O)N[C@@H](CCCNC(=N)N)C(=O)N1CCC[C@H]1C(=O)NCC(N)=O [Peptide 1] | 100% |
| Met-Gln-Met-Lys-Lys-Val-Leu-Asp-Ser-OH (MQMKKVLDS-OH) [Peptide 2] | 100% |
